We go through 2 molecules from PMC3163001 (Organic letters, 2011).

The structures appear in SMILES notation.

The assay has as its target SylD-CA (Pseudomonas syringae, UniProt Q83Y48). The assay can be described thus: ATP-PPi radioactivity exchange assay. The format is biochemical. The following applies: reversible adenylation.

`NCC/C=C/[C@H](N)C(=O)O` [L-3,4-dehydrolysine]: under “preferred substrate of the A domain”, the “ATP-PPi radioactivity exchange assay” value is given as “As expected L-3,4-dhl was preferentially reversibly adenylated”.

As for `NCCCC[C@H](N)C(=O)O` [L-lysine], the “ATP-PPi radioactivity exchange assay” value is reported as “L-lysine was reversibly adenylated at a much slower rate”.
